In patent publication US10376487B2, “Method of treatment” (Vanda Pharmaceuticals, Inc., priority 2013, dated 2019):
Read-outs that look alike come from different tables or passages of the source.

Assay: Clinical food-effect study: pharmacokinetics of a 100 mg tasimelteon capsule with or without a high-fat/high-calorie meal
Format: in vivo, human
Details: for Cmax / Tmax: human, in vivo, po
Protocol: A clinical study was undertaken to investigate the effects of food on administration of tasimelteon. Specifically, the primary objective of the study was to investigate the influence of food (high-calorie/high-fat) on the pharmacokinetics of 100 mg of tasimelteon in healthy subjects. This was a single-center, open-label, crossover design which lasted up to 5 weeks. 26 Healthy male and female subjects (18-50 years old) were enrolled in the study. There was a 2-period, randomized, 2-sequence crossover design where each subject received 100 mg tasimelteon either with or without food. Subjects were randomly assigned to receive a 100 mg tasimelteon capsule under fasted conditions or a 100 mg tasimelteon capsule under fed conditions (i.e., 30 minutes after beginning to ingest a high-fat meal). There was a 7-day washout between treatment groups. FIG. 1 depicts an example of the overall study design. In FIG. 1, tasimelteon is referred to as VEC-162.
For purposes of the study depicted in FIG. 1, administration under fasted conditions was administration with 240 mL of water at approximately 6:00 AM, after at least a 10-hour fast. Subjects were not allowed to eat any food for at least 4 hours postdose. Subjects were allowed to drink water as desired except 1 hour before and 2 hours after drug administration.
Administration under fed conditions was administration with 240 mL of water at approximately 6:00 AM, after a high-fat/high=calorie breakfast, which included one cup of milk. Subjects began the recommended meal 30 minutes prior to drug administration. Subjects finished eating the meal in 30 minutes or less and the drug was administered approximately 30 minutes after the start of the meal. Subjects were not allowed to eat any food for at least 4 hours postdose. Subjects were allowed to drink water as desired except 1 hour before and 2 hours after drug administration.
25 Subjects completed both periods of the study.

[1] = fed vs fasted, 100 mg oral, 90% CI within 80% to 125%
[2] = with a high-fat/high calorie meal vs fasted

Cmax lower than when given in a fasted state (administered with a high-fat meal, illustrative prescribing information language): 44% | Cmax (both sexes, 100 mg, healthy subjects, 100 mg oral capsule, fasted conditions): 0.786 µg/mL | Cmax (both sexes, 100 mg, healthy subjects, 100 mg oral capsule, fed conditions (high-fat/high-calorie meal)): 0.445 µg/mL | Tmax (both sexes, 100 mg, healthy subjects, 100 mg oral capsule, fed conditions (high-fat/high-calorie meal), read-out: median Tmax): 2.5 h | AUC(0-t) geometric mean ratio [1]: 108.57% | AUC(Inf) geometric mean ratio [1]: 106.54% | Cmax geometric mean ratio (fed vs fasted, 100 mg oral, 90% confidence interval 49.72% to 62.67%): 55.82% | Tmax (after fasted oral administration, illustrative prescribing information language, read-out: peak concentration (Tmax)): 0.5 to 3 h | extent of absorption [2]: no significant change | rate of absorption [2]: significant decrease
SMILES: CCC(=O)NC[C@@H]1C[C@H]1c1cccc2c1CCO2 [tasimelteon]
